Here are results for one molecule from US11724980B2, “Quinones having high capacity retention for use as electrolytes in aqueous redox flow batteries” (President and Fellows of Harvard College, priority 2018, dated 2023).

Data set [1] in a line: Rotating disk electrode study with Levich analysis. The format is physicochemical. To be noted: 5 mM in 1 M KOH, Levich plot. The method, then:
Glassy carbon was used as the working electrode for all three-electrode CV tests. RDE experiments were conducted using a Pine Instruments Modulated Speed Rotator AFMSRCE equipped with a 5 mm diameter glassy carbon working electrode, a Ag/AgCl reference electrode (BASi, pre-soaked in 3 M NaCl solution), and a graphite counter electrode. The electrode was rotated at a specific speed while the voltage was linearly swept from −0.4 to −0.11 V vs. Ag/AgCl (FIG. 4A). […]. RDE experiments were conducted using a Pine Instruments Modulated Speed Rotator AFMSRCE equipped with a 5 mm diameter glassy carbon working electrode, a Ag/AgCl reference electrode (BASi, pre-soaked in a 3 M KCl solution), and a graphite counter electrode. […]

Data set [2] can be described thus: Unbalanced compositionally-symmetric cell cycling. The method, then: As a direct probe of the effect of O-alkylation of anthraquinone on its chemical stability, 2,6-DBEAQ was cycled potentiostatically in a volumetrically unbalanced compositionally-symmetric cell configuration.
Potentiostatic symmetric cell cycling was performed according to a reported procedure^8 in order to assess the temporal chemical stability of DBEAQ, independent of any variations in apparent capacity as a result of changes to membrane resistance, and in a configuration where there is negligible water or reactant crossover due to the same DBEAQ concentration being used in both electrolytes. […] 5 mL of the resulting electrolyte was used as the capacity-limiting side of a volumetrically unbalanced compositionally-symmetric cell, while the remaining 10 mL was used as the non-capacity-limiting side, i.e., with twice the nominal capacity of the capacity-limiting side. […].
The cycling stability of the DPPEAQ electrolyte was also studied by a previously published symmetric cell method.^24 Although the oxidized form of DPPEAQ is readily soluble at pH 9, proton-coupled electron transfer raises the pH of the electrolyte when it is reduced. Such pH fluctuations can produce misleading results in symmetric cell testing unless the starting pH is above the cutoff point for proton-coupled electron transfer.

A short description of data set [3]: physchem. The format is physicochemical. To be noted: for solubility: thermodynamic from solid. On the procedure: Solubility limits of all DBEAQ isomers were measured in their oxidized forms by adding the potassium salt of DBEAQ (prepared by reacting DBEAQ with potassium hydroxide in water) until no further solid could be dissolved. After filtering the mixture through a PTFE 0.45 μm syringe filter, a saturated solution of DBEAQ in KOH was obtained. The saturated solution was then diluted by a known amount, and the concentration was evaluated by UV-Vis (Ocean Optics Flame-S Spectrometer Assembly) at 280 and 364 nm. […]
The solubility limit of DPPEAQ was measured in the oxidized form by adding the potassium salt of DPPEAQ (prepared by reacting DPPEAQ with potassium hydroxide in water) until no further solid could be dissolved. The mixture was adjusted to pH 9. After filtering the mixture through a PTFE 0.45 μm syringe filter, a saturated solution of DPPEAQ at pH 9 was obtained. The saturated solution was then diluted by a known amount while maintaining a pH of 9, and the concentration was evaluated by UV-Vis (Agilent Cary 60 spectrophotometer). The concentration was calculated according to a pre-calibrated absorbance-concentration curve of known concentrations of DPPEAQ at pH 9.

A short description of data set [4]: physchem. The format is physicochemical. The note with it: for decomposition: 0.1 M. The method, then:
FIGS. 24A-24D. Comparison of the stability of DPPEAQ with respect to alkyl chain cleavage to that of 2,6-DBEAQ at pH 14. ^1H NMR spectra (500 MHz, 10 mM NaCH3SO3 internal standard, δ 2.6 ppm) of (A) DPPEAQ at pH 14; (B) DPPEAQ at pH 14, treated for 5.5 days at 95° C. and 0.1 M concentration; (C) 2,6-DBEAQ at pH 14; (D) 2,6-DBEAQ at pH 14, treated for 5.5 days at 95° C. and 0.1 M concentration. […] The relative integrals and splitting of the peaks in the spectra of DPPEAQ after treatment are consistent with the products of (3-hydroxypropyl)phosphonate cleavage. Samples of DPPEAQ at 0.1 M concentration and pH 14 in both the oxidized and reduced form were stored in FEP bottles and heated in an oven at 65° C. for 2 weeks. The extent of decomposition was determined by ^1H NMR, with peak integrals measured relative to an internal standard of NaCH3SO3 prepared at 10 mM concentration in D2O.
By performing elevated temperature chemical stability studies, we have identified that the cleavage of γ-hydroxybutyrate is involved in the decomposition of the oxidized form of 2,6-DBEAQ (FIGS. 10A-10C and FIGS. 11A-11D), and we have characterized the time course of γ-hydroxybutyrate cleavage at pH 12 and pH 14 and at 0.1 M and 0.5 M concentration (FIG. 12 and FIGS. 13A-13C). […]; these observations are consistent with long redox flow battery lifetime at typical operating cell conditions.
We designed an analogue of 2,6-DBEAQ but with phosphonate-terminated functional groups, DPPEAQ, appearing to deliver both of these desired outcomes.
The differing relative stabilities of DPPEAQ and 2,6-DBEAQ at pH 12 (at 95° C. and 0.1 M concentration), in contrast to the similar extent of their observed decomposition at pH 14, may be due to a competition between multiple decomposition mechanisms that vary in a pH-dependent manner. The concentration of hydroxide ions at pH 14 is tenfold higher than the concentration of either molecule at 0.1 M, as opposed to tenfold lower at pH 12. In particular, we propose a hydroxide-mediated nucleophilic substitution reaction (SNAr or SN2) that dominates the decomposition of both molecules at pH 14. However, at a lower pH of 12, an intramolecular reaction with carboxylate acting as the nucleophile dominates in the decomposition of 2,6-DBEAQ, while no analogous intramolecular reaction of DPPEAQ at pH 12 can take place due to much weaker nucleophilicity of bulked phosphonate compared with carboxylate. The difference in the dominant mechanisms of 2,6-DBEAQ decomposition at pH 12 and 14 that we are proposing is also consistent with the observation that the initial rate of degradation is not 100-fold slower at pH 12 relative to pH 14. […] In addition, the operability at lower pH serves to decrease the corrosion of battery systems and enable the use of less expensive materials.

Like-named read-outs stand apart in the source and are kept apart here.

Regarding `O=C([O-])CCCOc1ccc2c(c1)C(=O)c1ccc(OCCCC(=O)[O-])cc1C2=O.[K+].[K+]` [2,6-DBEAQ, 4,4′-((9,10-anthraquinone-2,6-diyl)dioxy)dibutyric acid], the “diffusion coefficient for the oxidized form” value in data set [1] is recorded as 1.58×10^−6 cm^2/s. The “temporal capacity fade rate” value is reported as under 0.01 %/day in data set [2] (pH 14 (1 M KOH), 0.10 M (2,6-DBEAQ also 0.65 M)); under 3.0 %/year in data set [2] (pH 14, 0.10 and 0.65 M). The “Maximum Solubility” value in the data set “physchem [3]” (KOH, pH 12) amounted to 600 mM. The solubility is under 0.035 M in the data set “physchem [3]” (pH 9, aqueous buffer, pH 9, read-out: solubility); over 0.5 M in “physchem [3]” (pH 12, aqueous buffer, KOH, pH 12, read-out: Maximum Solubility); 0.6 M in the data set “physchem [3]” (pH 12, aqueous buffer, pH 12 (value in brackets), read-out: Solubility (M) at pH 14 (pH 12)); over 1 M in “physchem [3]” (pH 14, aqueous buffer, KOH, pH 14, read-out: Maximum Solubility); 1.1 M in the data set “physchem [3]” (pH 14, aqueous buffer, pH 14 (value outside brackets), read-out: Solubility (M) at pH 14 (pH 12)). Also, the half-life in the data set “physchem [4]” (buffer, room temperature, pH 14, 0.1 M, oxidized form, from elevated temperature studies) was about 1830 days. The decomposition is listed as 15% in the data set “physchem [4]” (pH 12, 6 days at 95° C.) and 45% in the data set “physchem [4]” (pH 14, 5.5 days at 95° C.). Also, in “physchem [4]” (temperatures up to 95° C.), the “stability of the reduced form” value is on record as “quite stable”.

The term solubility denotes how much of the substance goes into solution per volume. As a reminder, the half-life is how long it takes for the measured level to halve.
